Reference: patent publication US7297694B2, “Pyridylfurans and pyrroles as Raf kinase inhibitors” (SmithKline Beechum P.L.C., priority 2001, dated 2007)

How the values were obtained:
B-Raf = B-Raf (Homo sapiens, UniProt P15056); test: Fluorescence Anisotropy Kinase Binding Assay (Assay 1)
Source text: Fluorescence Anisotropy Kinase Binding Assay
The concentration of kinase enzyme should preferably be ≧1×Kf. The concentration of fluorescent ligand required will depend on the instrumentation used, and the fluorescent and physicochemical properties. The concentration used must be lower than the concentration of kinase enzyme, and preferably less than half the kinase enzyme concentration. A typical protocol is:
All compounds are serially diluted in DMSO, then by a one step dilution into buffer of comparison, 50 mM HEPES, […] pH7.5, 1 mM CHAPS, 10 mM MgCL2, for the assay.
B-Raf Enzyme concentration: 1 nM
Fluorescent ligand concentration: 0.5 nM
Test compound concentration: 0.5 nM -100 uM
Components incubated in 10 ul final volume in LJL HE 384 type B black microtitre plate until equilibrium reached (Over 3 h, up to 30 h)
Fluorescence anisotropy read in an LJL Acquest.
• Ki=dissociation constant for inhibitor binding • Kf=dissociation constant for fluorescent ligand binding
The fluorescent ligand is the following compound:
which is derived from 5-[2-(4-aminomethylphenyl)-5-pyridin-4-yl]-1H-imidazol4-yl]-2-chlorophenol and rhodamine green.

[1] = system: Human diploid foreskin fibroblasts (HFF); test: XTT 72 hr Growth Inhibition (Assay 3), HFF; format: cell-based; settings: Fibroblast, normal, B-Raf wt, Ras wt
Protocol: (§1) XTT 72 hr Growth Inhibition Protocol for Mammalian Cultured Cells (Assay 3)
(§2) Human diploid foreskin fibroblasts (HFF) or human colon carcinoma (Colo 201) cells were grown in Dulbecco's modified Eagle's medium (DMEM) (Invitrogen/Life Technologies) containing 10% fetal bovine serum (FBS) and the antibiotics penicillin (100 Units/ml) and streotomycin (100 micrograms/ml) (Invitrogen/Life Technologies). Growth was at 37° C. in humidified 5% CO2 incubators in 75 cm^2 plastic flasks. Cells were harvested using 0.25% trypsin/1 mM ethylenediaminetetraacetic acid (EDTA), resuspended in growth medium, and counted using a hemocytometer. Flat-bottomed 96-well plates were seeded with 2×10^3 cells/well in a volume of 200 ul from trypsinized exponentially growing cultures. To “blank” wells, growth medium was added with no additions. Cells were incubated overnight to permit attachment.
(§3) Next day, medium from wells that contained cells was replaced with 180 microliters of fresh medium. Appropriate dilutions of test compounds were added to the wells from stock soloutions of compound dissolved in dimethyl sulfoxide (DMSO); final DMSO concentration in all wells was 0.2%. […] Absorbance at 450 nm was then determined using a 96-well UV plate reader (Molecular Devices). Under these conditions, absorbance of untreated control cells at 450 nm was at least 1.0 optical density unit/ml. […]

[2] = system: human colon carcinoma (Colo 201) cells; test: XTT 72 hr Growth Inhibition (Assay 3), Colo201; format: cell-based; settings: Colorectal cancer, B-Raf ND, Ras ND
Protocol: as §1, §2, §3

[3] = system: colon carcinoma (Colo 205); test: Methylene Blue Growth Inhibition Assay (Assay 2), Colo205; format: cell-based; settings: Homo sapiens, Colorectal cancer, B-Raf V599E, Ras wt
human melanoma A375P = test: Methylene Blue Growth Inhibition Assay (Assay 2), A375P; format: cell-based; settings: B-Raf V599E, Ras wt
human melanoma SKMEL3 = test: Methylene Blue Growth Inhibition Assay (Assay 2), SKMEL3; format: cell-based; settings: SK-MEL3, B-Raf V599E, Ras wt
human melanoma SKMEL2 = test: Methylene Blue Growth Inhibition Assay (Assay 2), SKMEL2; format: cell-based; settings: SK-MEL-2, B-Raf wt, [Q6IR]N-Ras

B-Raf, sequence (P15056 whole entry): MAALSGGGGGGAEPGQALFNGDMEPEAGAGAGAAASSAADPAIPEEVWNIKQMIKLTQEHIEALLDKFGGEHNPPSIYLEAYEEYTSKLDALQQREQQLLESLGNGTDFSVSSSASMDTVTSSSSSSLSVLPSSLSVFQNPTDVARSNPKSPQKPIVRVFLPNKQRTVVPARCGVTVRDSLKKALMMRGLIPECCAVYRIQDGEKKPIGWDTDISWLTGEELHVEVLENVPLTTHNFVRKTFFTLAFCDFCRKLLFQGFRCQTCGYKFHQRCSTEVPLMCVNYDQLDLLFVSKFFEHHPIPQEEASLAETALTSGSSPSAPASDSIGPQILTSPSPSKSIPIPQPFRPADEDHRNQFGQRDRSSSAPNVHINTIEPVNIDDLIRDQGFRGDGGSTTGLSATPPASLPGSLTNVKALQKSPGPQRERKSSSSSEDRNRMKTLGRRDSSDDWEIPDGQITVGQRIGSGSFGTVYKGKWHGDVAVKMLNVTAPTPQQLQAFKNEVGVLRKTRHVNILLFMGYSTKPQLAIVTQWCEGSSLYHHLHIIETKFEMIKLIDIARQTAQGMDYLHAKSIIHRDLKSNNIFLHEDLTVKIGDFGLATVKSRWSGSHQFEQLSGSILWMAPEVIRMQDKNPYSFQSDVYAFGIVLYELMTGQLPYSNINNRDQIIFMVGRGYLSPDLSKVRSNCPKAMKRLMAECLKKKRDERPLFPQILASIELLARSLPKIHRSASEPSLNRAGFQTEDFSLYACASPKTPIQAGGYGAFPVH

CN(C)CCOc1ccc(-c2cc(-c3ccc4c(c3)CCC4=NO)c(-c3ccncc3)o2)cc1 [Example 4, 5-{5-[4-(2-Dimethylaminoethoxy)phenyl]-2-pyridin-4yl-furan-3-yl}indan-1-one oxime]
Kd (B-Raf): 1 nM
IC50 [1]: 7.1 µM
IC50 [2]: 0.5 µM
IC50 [3]: 0.11 µM
IC50 (human melanoma A375P): 0.081 µM
IC50 (human melanoma SKMEL3): 1 µM
IC50 (human melanoma SKMEL2): 0.22 µM
